Data: patent publication US20240342148A1, “METHODS OF TREATING FACIOSCAPULOHUMERAL MUSCULAR DYSTROPHY WITH LOSMAPIMOD” (Fulcrum Therapeutics, Inc., priority 2021, published 2024)
Values joined by “and” are separate entries in the source; they are usually repeats but may differ in a detail not shown here. Identical values can stand only once.

Assays:
Assay type in all cases: in vivo, human
[1] = Plasma losmapimod concentrations (PK), Phase 2b RCT; conditions: 15 mg orally BID
Method: Blood samples for PK assessment (plasma losmapimod concentrations) were collected at D1, Wk4, Wk16, and Wk36 at the following time points: immediately pre-dose and 4 hours (±30 minutes) after administration of the study dose (approximate Cmax). PK samples were also taken, when feasible, after dosing during the Wk12, Wk24, and Wk48 visits, preferably ≥1 hour after dosing.
Plasma and muscle losmapimod concentrations were measured by 2 validated bioanalytical high-performance liquid chromatography methods by PPD, USA (PPD 2019).

[2] = test system: DUX4-regulated gene transcripts; assay: DUX4-regulated transcript analysis by RT-qPCR in muscle biopsies (primary endpoint); conditions: log 2 scale
Method: All efficacy analyses were performed using the full analysis set (FAS), according to the randomized treatment group. The primary endpoint, change from baseline in DUX4 activity (DUX4 Score 1), was analyzed using the analysis of covariance approach, with treatment group and FSHD repeat number category (1 to 3 repeats versus 4 to 9 repeats) as fixed effects, and baseline DUX4 Score 1 as a covariate. Multiplicity adjustment was not performed, as the primary endpoint was not met.
Muscle needle biopsies were performed using the Bergstrom needle or fine needle at D1 and Wk16, or Wk36 if the muscle biopsy could not be performed at Wk16. The choice of the muscle(s) to be biopsied was determined by the investigator, informed by MRI taken during screening. […] The bilateral vastus lateralis, vastus medialis, lateral gastrocnemius, medial gastrocnemius, and tibialis anterior were evaluated for eligibility by MRI using a central reader. […]
The muscle tissue collected at each muscle needle biopsy (D1 and Wk16 or Wk36) was analyzed for DUX4 activity using a molecular panel of DUX4-regulated gene transcripts (CCNA1, KHDC1L, MBD312, PRAMEF6, SLC34A2 and ZSCAN4, with TBP, HMBS, CDKN1B as reference genes). Raw Cycle Thresholds (Cts) from quantitative polymerase chain reaction (qPCR) were determined for DUX4 regulated genes using a validated assay (Fluidigm). […]

[3] = test system: subjects with FSHD; assay: Patients' Global Impression of Change (PGIC); conditions: Wk48
Method: The Patients' Global Impression of Change (PGIC) Questionnaire was administered at every visit after baseline. Subjects were asked to rate their overall status since the start of the study on a scale from 1 (very much improved) to 7 (very much worse). The PGIC scale has been validated in several other indications and is recommended by the FDA for use as a meaningful measure of within-patient change.

[4] = test system: subjects with FSHD; assay: Reachable workspace (RWS) relative surface area, RCT
Method: Continuous secondary and exploratory efficacy endpoints with 2 or more postbaseline follow-ups were analyzed using a mixed-effects model for repeated measures (MMRM), with change from baseline as the dependent variable, and treatment group, visit, treatment group-by-visit interaction, and FSHD repeat number category as fixed effects, and baseline value as a covariate. An unstructured covariance matrix was used to model the correlations among repeated measurements within each subject. The Kenward-Roger approximation was used to estimate denominator degrees of freedom. The RWS RSA score was also analyzed using a linear mixed-effects model, with treatment group as a fixed effect, and intercept, time and treatment group-by-time interaction as random effects, and with adjustment for FSHD repeat number category and region (USA, Canada, and EU). An unstructured covariance matrix was used. The RWS was performed at all visits, except for Week 16. It uses a single, 3D sensor-based system (Microsoft […]) that can unobtrusively detect subjects' RWS and reflects individual global upper extremity (UE) function, including shoulder and proximal arm. RWS has high reliability, repeatability, face validity, feasibility, sensitivity to change, and promise as a clinical outcome assessment (COA) for FSHD and other neuromuscular disorders. During the evaluation, patients were seated in front of the Microsoft […] sensor and underwent a standardized UE movement protocol while looking at a TV monitor. The evaluation was performed with and without 500 g weights two times per visit. All sites were provided and trained with the same standardized software and hardware by the sponsor. A central reader was responsible for training, quality control, data analysis, and standardization of the RWS across all sites in the study.

[5] = test system: subjects with FSHD; assay: Safety and tolerability in the RCT; conditions: 15 mg BID up to 48 weeks
Method: All safety analyses were performed using the safety analysis set based on as-treated treatment group. Safety analyses included summaries of TEAEs, clinical laboratory, vital signs and ECGs.

Cc1c(F)cc(C(=O)NC2CC2)cc1-c1ccc(C(=O)NCC(C)(C)C)cn1 [losmapimod, 6-(5-cyclopropylcarbamoyl-3-fluoro-2-methyl-phenyl)-N-(2,2-dimethylpropyl-)-nicotinamide]
Plasma concentrations of losmapimod pre-dose ([1]; pre-dose): 25.2 to 34.4 ng/mL
Cmax at 4 h ([1]; human, plasma, po, 4 h post-dose, read-out: Plasma concentrations of losmapimod 4 h post-dose (approximate Cmax)): 66.4 to 91.8 ng/mL
Change in DUX4 activity, difference losmapimod vs placebo ([2]; 95% CI −1.04, 1.89, p=0.56): 0.43
Change from baseline in DUX4 activity ([2]; combined Wk16 or Wk36 muscle biopsies): 0.83
Patients reporting feeling very much worse on PGIC (6-7 in Likert scale) [3]: No losmapimod treated patients
Patients reporting improvement on PGIC (1-3 in Likert scale) [3]: 27.5% and ~20%
PGIC difference compared to placebo ([3]; 1-7 Likert scale, p=0.02): 0.58
RSA change, dominant arm ([4]; 0-1.25 scale): 0.019
RSA change, non-dominant arm ([4]; 0-1.25 scale): 0.021
RSA difference vs placebo, non-dominant arm ([4]; 0-1.25 scale, 95% CI 0.0007, 0.09, p<0.05): 0.045
RSA difference vs placebo, dominant arm ([4]; 0-1.25 scale, 95% CI 0.017, 0.118, p=0.01): 0.067
Annualized rate of change in total RSA, non-dominant, annual percent change ([4]; weighted assessment, p=0.01): 4.88%
Annualized rate of change in total RSA, dominant, annual percent change ([4]; weighted assessment, p=0.07): 0.28%
Safety and tolerability [5]: favorable safety and tolerability
